For the test, the system named is Balb/C mice. As to the kind of experiment: Model of lung eosinophilia in mice (ovalbumin sensitization and provocation). It counts as in vivo. The settings on record: i.n. 2 mg/kg daily from 2 days prior to the provocative test until the end, lavage 48 hours after ovalbumin provocation. The method, then: Model of Lung Eosinophilia in Mice
Male Balb/C mice (Charles River) of 20-25 g of body weight were randomly divided into groups. They were sensitized by i.p. application of ovalbumin (Sigma) on days zero and fourteen. On day twenty the mice were subjected to a provocative test by i.n. application of ovalbumin (positive control and test groups) or PBS (negative control). After 48 hours the animals were anesthetized and the lungs were rinsed with 1 mL of PBS. The cells were centrifuged on Cytospin 3 cytocentrifuge (Shandon). Then the cells were stained with Diff-Quick (Dade) and the percentage of eosinophils was determined by differential counting of at least 100 cells.
Beclomethazone was used as a standard substance in addition to positive and negative controls. The compound was applied daily i.n. in a dose of 2 mg/kg for 2 days prior to the provocative test and until the end of the investigation.
The compound 13 reduced the number of eosinophils in the lavage and histological preparations of lungs for 50% in relation to the positive control group.

This is an account of results in patent US7384975B2, “Substituted furochromenes, preparation thereof and their antiinflammatory action” (GlaxoSmithKline Istrazivacki Centar Zagreb d.o.o., priority 2003, dated 2008).

Consider `O=c1oc2cc(O)cc(O)c2c(O)c1-c1cc2c(=O)oc3cc(O)cc(O)c3c2o1` [Compound 13, 7,9-Dihydroxy-2-(4,5,7-trihydroxy-2-oxo-2H-chromene-3-yl)-4H-furo[3,2-c]chromene-4-one], for which the “reduction of the number of eosinophils in the lavage and histological preparations of lungs in relation to the positive control group” value is 50%.
